Tests used:
A549 (lung cancer) = assay: In vitro cytotoxicity test (MTT) against human tumour cell line A549; format: cell-based; details: A549, 24 h contact, 48 h re-growth
Method: Human tumour cell lines A549 (lung cancer), HCT-15 (colon cancer) and MCF-7 (breast cancer) have been obtained from the Developmental Therapeutics Program of the National Cancer Institute (Rockville, Md., USA). Cells were routinely grown with RPMI 1640 medium supplemented with 10% foetal calf serum, both obtained from Biochrom AG (Berlin, Germany). They were grown on Petri dishes (Nunc, Denmark) at 37° C. in a humidified atmosphere containing 5% CO2. Cells were replicated every 4 days and the medium changed once in-between.
Cytotoxicity has been evaluated on exponentially growing cells grown for 24 h in presence of the compounds to be tested. Briefly, 4000 cells were seeded in 96-well plates with 200 μL of complete medium; 24 hours later the medium was supplemented with a series of different concentrations of compounds and the contact maintained for 24 h. Compounds were dissolved in pure water and sterilised using polycarbonate membrane filters of 0.22 μm (Millipore, Molsheim, France). The cells were then allowed to re-grow for 48 hours; viable and metabolically active cells were quantitatively estimated by coloration with the MTT dye (1-(4,5-dimethylthyazol-2-yl)-3,5-diphenylformazan), Sigma-Aldrich Chimie, Saint-Quentin-Fallavier, France). The amount of substance allowing a 50% decrease in cell numbers is indicative of the cytotoxicity and represents the IC50 of compound.

A549 = assay: Cell cycle arrest, propidium iodide flow cytometry, A549; format: cell-based, human
Method: (§1) 10^6 Cells of A549, HCT-15 and MCF-7 cell lines have been seeded in Petri dishes with RPMI-1640 medium. 24 h later, SDD has been dissolved in water at a concentration of 20 μM and was directly added to the culture medium. Contact was maintained for 72 h. Then, cells have been detached by trypsinization, collected and rinsed by PBS and counted on hemocytometer. Cells were centrifuged for 5 min at 1500 rpm, then resuspended in a defined volume of PBS to obtain 2.5×10^6 cell/mL. 100 μL of cell suspension was digested to nuclei by trypsin for 10 min. Then, a solution containing trypsin inhibitor and RNAse was added to cell suspension and left for 10 min. Finally, cells were stained by propidium iodide and were analysed by flow-cytometry apparatus. Distribution of cells among the different phases of the cycle was determined by the procedure disclosed in: A detergent-trypsin method for preparation of nuclei for flow cytometric DNA analysis. Vindelov, L.; Christensen, I.; Nissen, N.; Cytometry (1983), 3, 323-327.
(§2) • G0G1: cell in the phase of GOG1 • G2M: cells in the phase of G2M • S: cells in the phase of DNA synthesis • Sub G1: apoptotic cells • SUP G2M: diploidic cells

HCT-15 = assay: Cell cycle arrest, propidium iodide flow cytometry, HCT-15; format: cell-based, human
Method: as §1, §2

[1] = system: DNA topoisomerase II (Topo II); assay: Topo II catalytic activity, decatenation of kDNA; format: biochemical; details: 1, 10, 100 and 1000 μM; dose independent
Method: Test for revelation of the possible inhibitory effect of SDD on Topo II catalytic activity has been undertaken by decatenation of a catenated DNA substrate originating from Trypanosoma kinetoplasts (kDNA, TopoGen) into relaxed DNA forms.
The following standard reaction mixture contained 40 mM Tris/HCl pH 7.4, 10 mM MgCl2, 0.5 mM dithiothreitol, 1 mM ATP and […] kDNA has been carried out.
The reaction was initiated by the addition of 0.35 M NaCl nuclear extract and stopped after 20 min incubation at 37° C. by adding a denaturating solution containing 30% glycerol, 1% SDS, 0.5 mg/ml bromphenol blue.
The samples were then electrophoresed on a 1% agarose gel in 40 mM Tris/acetic acid, pH 8.0 containing 2 mM EDTA and 0.1 μg/ml ethidium bromide, for 45 min at 80V.
A positive control for decatenation was a decatenated kDNA marker obtained from TopoGen, containing a mixture of two species of relaxed
DNA, open circular DNA and covalently closed circular DNA.
DNA was visualized under UV light and the various DNA forms were quantified by densitometric scanning using the device described above.
Etoposide was used as positive control, as it is described in the following publication: Differential stabilisation of topoisomerase-II-DNA cleavable complexes doxorubicine and etoposide in doxorubicin-resistant rat glioblastoma cells. […]

female Swiss mice = assay: Acute systemic toxicity, main test, intravenous; format: in vivo, mouse
Method: The SDD was administered by intravenous route at the dose of 50 mg/kg body weight to a group of 5 female Swiss mice. The experimental protocol was established from the International standard NF EN ISO 10993-11 concerning biological evaluation of medical devices: “Tests for systemic toxicity”.

[2] = A549, SDD 20 μM, 72 h, percentage of total cell population
[3] = HCT-15, SDD 20 μM, 72 h, percentage of total cell population
[4] = 50 mg/kg iv, 1 hour after administration

CCN1C[C@]2(COC)[C@H](O)C[C@H](OC)[C@]34C1[C@H]([C@H](OC)[C@H]23)[C@]1(OC(=O)CCCCCCC(=O)O[C@]23[C@H]5[C@@H](OC(=O)c6ccccc6)[C@](O)(C[C@H]5[C@@]56C7[C@@H]2[C@H](OC)[C@@H]5[C@](COC)(CN7CC)[C@H](O)C[C@@H]6OC)[C@@H](OC)[C@@H]3O)[C@H]2[C@@H](OC(=O)c3ccccc3)[C@](O)(C[C@H]24)[C@@H](OC)[C@@H]1O [SDD, bis[O-(14-benzoylaconine-8-yl)]-suberate]
IC50 (A549 (lung cancer)): 18.7 µM
accumulation of cells in the G2M and S phases (A549; A549, 20 μM): significant accumulation
increase of number of cells arrested at S phase as compared to control (A549; A549, SDD 20 μM): more than 100%
increase of number of cells in the G2M phase as compared to control (A549; A549, SDD 20 μM): 85%
ALL % (A549; [2]): 100%
G0G1 % (A549; [2]): 53.04%
G2M % (A549; [2]): 16.42%
S % (A549; [2]): 25.49%
SUP G2M % (diploidic cells) (A549; [2]): 2.09%
SubG1 % (apoptotic cells) (A549; [2]): 3.34%
cell distribution in the cell cycle (A549; A549, SDD concentration close to IC50): altered
Percentage of survival cells, G0G1 % (A549; A549, SDD, survival cells): 55.86%
Percentage of survival cells, G2M % (A549; A549, SDD, survival cells): 17.29%
Percentage of survival cells, S % (A549; A549, SDD, survival cells): 26.84%
accumulation of cells in the G2M and S phases (HCT-15; HCT-15, 20 μM): significant accumulation
numbers of apoptotic cells (Sub G1) (HCT-15; HCT-15, 20 μM): significantly increased
increase of number of cells arrested at S phase as compared to control (HCT-15; HCT-15, SDD 20 μM): more than 100%
increase of number of cells in the G2M phase as compared to control (HCT-15; HCT-15, SDD 20 μM): 75%
ALL % (HCT-15; [3]): 100%
G0G1 % (HCT-15; [3]): 30.67%
G2M % (HCT-15; [3]): 15.72%
S % (HCT-15; [3]): 26.35%
SUP G2M % (diploidic cells) (HCT-15; [3]): 2.59%
SubG1 % (apoptotic cells) (HCT-15; [3]): 23.65%
Percentage of survival cells, G0G1 % (HCT-15; HCT-15, SDD, survival cells): 42.16%
Percentage of survival cells, G2M % (HCT-15; HCT-15, SDD, survival cells): 21.61%
Percentage of survival cells, S % (HCT-15; HCT-15, SDD, survival cells): 36.23%
inhibition of Topo II activity compared to etoposide [1]: relatively moderate inhibition
mortality (female Swiss mice; 50 mg/kg body weight iv, 5 female Swiss mice): No mortality
decrease of the righting reflex (animals affected) (female Swiss mice; [4]): 2/5
decrease of the spontaneous activity (animals affected) (female Swiss mice; [4]): 5/5
eyes partly closed (animals affected) (female Swiss mice; [4]): 2/5
macroscopical examination: necrosis at the level of the tail (animals affected) (female Swiss mice; 50 mg/kg iv, end of the study): 3/5
local finding at the tails (female Swiss mice; 50 mg/kg iv, first day to fourteenth day): oedema at the level of the tails
body weight evolution (female Swiss mice; 50 mg/kg iv, throughout the study): remained normal
LD50 (female Swiss mice; mouse, intravenous route): above 50 mg/kg of body weight

— US8703790B2, “Bis [O-(14-benzoylaconine-8-yl)] esters” (priority 2008, dated 2014)
